{
  "source": "patent US20190049428A1",
  "about": "“PLATELET AGGREGABILITY ANALYZING DEVICE, PLATELET AGGREGABILITY ANALYZING SYSTEM, PLATELET AGGREGABILITY ANALYZING PROGRAM, AND METHOD OF ANALYZING PLATELET AGGREGABILITY” (Sony Corporation, priority 2016, published 2019)",
  "test_system": "platelets in whole blood",
  "test": "Blood coagulability measurement of whole blood by dielectric constant (dielectric coagulometer, DiCA-Ex / DiCA-In)",
  "type": "cell-based, human (healthy subject)",
  "protocol": "Measurement of blood coagulability was conducted using the blood put to reaction in the experiment of 3-2 above. The measurement was carried out using a blood coagulation system analyzing device (dielectric coagulometer prototype No. 2), for performing the measurement of dielectric constant of the sample as aforementioned, and a comprehensive hemostatic ability measuring system ROTEM (registered trademark), at a measurement temperature of 37° C.\nIn the case of the blood coagulation system analyzing device, measurement of DiCA-Ex to which an aqueous calcium solution (0.2 M Ca) and a commercialized extrinsic stimulus reagent (100 fold dilution+PBS (v/v=1/5)) were added immediately before the start of measurement, and measurement of DiCA-In to which an aqueous calcium solution (0.2 M Ca) and a commercialized intrinsic stimulus reagent (+PBS(v/v=1/5)) were added, were conducted. The amount was unifiedly set to be 12 uL per 180 uL of blood.\nThe time of 10 minutes determinative of coagulation time was taken as an investigation time (FIG. 12-1), the maximum value was taken as 1, and the reciprocal of the difference therefrom was calculated (calculated CF), the results being depicted in FIG. 12-2. An average value obtained in the case where NaCl was added (control) was 17.7, whereas an average value obtained in the case where the platelet inducing substance was added was 12.7 (n=4).",
  "data": [
    {"compound": "CCCCC[C@H](O)/C=C/[C@H]1[C@H](O)CC(=O)[C@@H]1CCCCCCC(=O)O", "note": "[prostaglandin E1]", "values": [
      {"measurement": "difference between control and platelet inducing substance (platelet contribution part)", "setting": "combination with ADP", "value": "this difference is reduced"}
    ]},
    {"compound": "thrombin receptive activated protein [TRAP]", "values": [
      {"measurement": "amplitude of time variation in dielectric constant (normalized) at 100 kHz", "setting": "whole blood, versus +NaCl control", "value": "the amplitude is raised"}
    ]}
  ]
}
